Structures can show the parent of a compound that is named as a salt.
Assays:
Assay type in all cases: physicochemical
[1] = Cumulative release of paracetamol, FITC-dextran and FITC-BSA from directly loaded C16 films; conditions: for Release from C16 films (in words): 0.01 M PBS buffer pH 7.4, 37° C.
Description: Paracetamol: Before casting the C16 films, paracetamol was added and dissolved directly in 2.5% C16 protein solution. The resulting films contained each 2.5 mg of paracetamol. Three film samples containing paracetamol were incubated in 0.01 M PBS buffer pH 7.4 at 37° C. At predetermined time points, the buffer was removed and replaced with fresh medium. The release buffer was analyzed by NanoDrop 2000 (peqlab, Erlanger, Germany). […] Each film contained 1.3 mg of FITC-BSA or FD. Films containing the model drugs (n=3) were incubated in 0.01 M PBS buffer pH 7.4 at 37° C. At predetermined time points the buffer was removed and replaced with fresh medium. The release buffer was analyzed using the fluorescence spectrophotometer Cary Eclipse Varian (Agilent technology, Böblingen, Germany) applying an excitation wavelength of 490 nm and an emission of 520 nm. The drug which was not released was quantified by dissolving the film matrix in a 6 M GdmSCN solution. This solution was subsequently analyzed using a fluorescence spectrophotometer.
A) Spray-dried C16 proteins were dissolved in 6 M guanidinium thiocyanate and subsequently dialyzed against 5 mM Tris/HCl buffer, pH 8 at 4° C. The pH was measured using a pH meter. The protein solution was centrifuged at 10000 rpm for 15 min and filtered through a 0.45 μm cellulose acetate filter. The protein concentration was determined photometrically. The protein solution was finally diluted with Tris buffer to 2.5% w/v. Before casting the films, paracetamol was added and dissolved directly in the protein solution. Films (2.5×3 cm) were cast on the plastic foil A5 22/5B from mtv-messtechnik (Koeln, Germany) and dried in a laminar flow cabinet at room temperature overnight at 45% relative humidity. The resulting films contained 2.5 mg of drug. Three film samples containing paracetamol were incubated in 0.01 M PBS buffer, pH 7.4 at 37° C. At predetermined time points, the buffer was removed and replaced with fresh medium. The release buffer was analysed using a UV-Vis spectrophotometer.
Films were cast as described above. Every film contained 25 mg of C16 and 1.3 mg of FITC-BSA or FD, respectively. Films containing the substances were incubated in 0.01 M PBS buffer, pH 7.4 at 37° C. At predetermined time points, the buffer was removed and replaced with fresh medium. The release buffer was analysed using a fluorescence spectrophotometer applying an excitation wavelength of 490 nm and an emission of 520 nm. The substance which was not released was quantified by dissolving the film matrix in a 6M GdmSCN solution. This solution was subsequently analysed using a fluorescence spectrophotometer. The sum of the non-released substance and the released amount of substance was calculated as 100%. […] After direct loading with FITC-BSA, C16 films released almost 65% of the model protein within one week. […] The cumulative release of paracetamol, FITC-dextran 21 kDa (FD) and FITC-BSA from C16 films casted from an aqueous solution is shown in FIG. 6.

C16 films = assay: Remote loading of drugs and model protein lysozyme into C16 films; conditions: 30 min, room temperature
Description: Loading efficiency and loading were determinate for lysozyme dissolved in high purified water (HPW). For the remote loading of lysozyme, the loading solution was prepared dissolving 1% w/v lysozyme in high purified water. Three different films were weighted, following by incubation in a 6-well plate with 5 ml of the loading solution at room temperature, at 2 rpm. After 30 min, films were removed and the loading solution was diluted 1:20 and analysed photometrically at 280 nm recording its spectra using a spectrophotometer (Agilent Technologies 8453, Oberhaching, Germany). A calibration curve was prepared using the original lysozyme solution. The same method was performed using as incubation medium of 0.5% and 0.25% of lysozyme.
A) Low molecular weight drugs (tetracain hydrochloride, ethacridine monohydrate lactate, nipagin and phenol red) were dissolved at a concentration of 0.5 mg/ml in highly purified water (HPW), Tris 5 mM pH 7, and formate buffer 5 mM, pH 3, respectively. After dissolving the drugs, all solutions were filtered through a 0.45 μm cellulose acetate filter.
For the remote loading process, the previously cast C16 films were cut into pieces, weighed and placed into 24-well plates. At least four C16 film samples were incubated with 1 ml of each drug solutions for 30 min at gently agitation of 2 rpm at room temperature. After removing the C16 films, the quantities of the loaded drugs were calculated indirectly by measuring the remaining loading solutions photometrically. Finally, the loading and the loading-efficiency for each experimental condition were calculated (see Table 1).
For the remote loading of the model protein lysozyme, the loading solution was prepared by dissolving 1% w/v lysozyme in HPW. As before, three different C16 films were weighed. Afterwards, C16 films were incubated in a 6-well plate with 5 ml of the loading solution at gently agitation of 2 rpm at room temperature. After 30 min, C16 films were removed and the loading solution was analysed photometrically at 280 nm. Spectra were recorded using a spectrophotometer. At physiological pH, spider silk films are negatively charged.
B) For the remote loading of Lysozyme, the loading solution was prepared dissolving 1% w/v lysozyme in high purified water (HPW). Three different C16 films were weighted, followed by incubation in a 6-well plate with 5 ml of the loading solution at gently agitation of 2 rpm at room temperature. After 30 min, C16 films were removed and the loading solution was diluted 1:20 and analyzed photometrically at 280 nm. In particular, a spectra of this solution was subsequently recorded using a spectrophotometer (Agilent Technologies 8453, Oberhaching, Germany). A calibration curve was prepared using the original lysozyme solution. The same method was performed using an incubation medium with 0.5% and 0.25% of Lysozyme.

[2] = Isoelectric point (pI) of spider silk polypeptides
[3] = HPW (highly purified water), LMW drugs 0.5 mg/ml, lysozyme 1% w/v
[4] = pH 3 (formate buffer 5 mM), drug 0.5 mg/ml
[5] = pH 7 (Tris 5 mM), drug 0.5 mg/ml

Molecule | Loading (L) (C16 films; [3]) [%] | Loading efficiency (LE) (C16 films; [3]) [%] | Loading (L) (C16 films; [4]) [%] | Loading efficiency (LE) (C16 films; [4]) [%] | Loading (L) (C16 films; [5]) [%] | Loading efficiency (LE) (C16 films; [5]) [%] | other results
CC(=O)Nc1ccc(O)cc1 [paracetamol] | – | – | – | – | – | – | Release from C16 films (in words) ([1]; direct loading): completely release
Lysozyme: model protein, positively charged at physiological pH | 39.8 ± 1.8 | 22.8 ± 0.7 | – | – | – | – | –
CCCCNc1ccc(C(=O)OCCN(C)C)cc1 [Tetracaine HCl, tetracain hydrochloride] | 3.8 ± 1.9 | 35.1 ± 8.3 | 0.0 ± 0.0 | 0.0 ± 0.0 | 2.5 ± 07 | 24.3 ± 7.7 | –
COC(=O)c1ccc(O)cc1 [Nipagin, nipagin] | 0.8 ± 0.3 | 9.6 ± 4.3 | 0.5 ± 0.2 | 5.3 ± 2.3 | 0.0 ± 0.0 | 0.0 ± 0.0 | –
FITC-BSA: FITC-BSA (MW 66.5 kDa), model drug / model protein | – | – | – | – | – | – | Release after the burst (in words) ([1]; after day 1, 0.01 M PBS pH 7.4, 37° C.): constant amount per day; Release from C16 films (in words) ([1]; direct loading): slower; Burst release from C16 films ([1]; on day 1, direct loading, 0.01 M PBS pH 7.4, 37° C.): approx. 30%; Cumulative release from C16 films ([1]; within one week, direct loading, 0.01 M PBS pH 7.4, 37° C.): ~65%
CC(O)C(=O)O.CCOc1ccc2nc3cc(N)ccc3c(N)c2c1.O [Ethacridine lact., ethacridine monohydrate lactate] | 3.3 ± 0.3 | 54.2 ± 3.2 | 2.4 ± 0.5 | 16.5 ± 5.4 | 3.5 ± 1.0 | 45.8 ± 2.7 | –
C16: silk polypeptide which comprises 16 repeats of the sequence of module C (SEQ ID NO: 21) (protein) GSSAAAAAAAASGPGGYGPENQGPSGPGGYGPGGPGSSAAAAAAAASGPGGYGPENQGPSGPGGYGPGGPGSSAAAAAAAASGPGGYGPENQGPSGPGGYGPGGPGSSAAAAAAAASGPGGYGPENQGPSGPGGYGPGGPGSSAAAAAAAASGPGGYGPENQGPSGPGGYGPGGPGSSAAAAAAAASGPGGYGPENQGPSGPGGYGPGGPGSSAAAAAAAASGPGGYGPENQGPSGPGGYGPGGPGSSAAAAAAAASGPGGYGPENQGPSGPGGYGPGGPGSSAAAAAAAASGPGGYGPENQGPSGPGGYGPGGPGSSAAAAAAAASGPGGYGPENQGPSGPGGYGPGGPGSSAAAAAAAASGPGGYGPENQGPSGPGGYGPGGPGSSAAAAAAAASGPGGYGPENQGPSGPGGYGPGGPGSSAAAAAAAASGPGGYGPENQGPSGPGGYGPGGPGSSAAAAAAAASGPGGYGPENQGPSGPGGYGPGGPGSSAAAAAAAASGPGGYGPENQGPSGPGGYGPGGPGSSAAAAAAAASGPGGYGPENQGPSGPGGYGPGGP | – | – | – | – | – | – | pI [2]: 3.48
